Laboratory results: patent US20130072505A1, “6,9-Disubstituted Purine Derivatives and Their Use for Treating Skin” (priority 2006, published 2013)

Key:
Format in all cases: cell-based
[1] = tested on: senescent human skin fibroblasts; experiment: treatment of senescent human skin fibroblasts (cell number, actin staining, morphology)
Method: The effect of 6-furfurylamino-9-(2-tetrahydropyranyl)purine on senescent cells was also examined. An equal number of senescent cells were seeded in separate flasks and then treated with different concentrations of 6-furfurylamino-9-(2-tetrahydropyranyl)purine (0 to 400 μM). Cell numbers were determined after 7 and 14 days of treatment using a Coulter counter after trypsinisation and resuspension of the cells.
Late passage senescent cells with a life span of more than 95% were also treated with different concentrations of 6-furfurylamino-9-(2-tetrahydropyranyl)purine (0 to 200 μM) to assess age-related changes. The actin staining patterns were examined after three days. […] Less polymerized and diffused patterns of actin staining are generally associated with youthful characteristics of human fibroblasts. Thus, 6-furfurylamino-9-(2-tetrahydropyranyl)purine appears to revert some of the age-related changes in actin organization in senescent cells.
Senescent human skin fibroblasts were also treated with 6-furfurylamino-9-(2-tetrahydropyranyl)purine (0 to 400 μM) and evaluated for reversion of age-related changes. There were significant differences in the appearance of the cells after 7 and 30 days of treatment. […] Even at higher concentrations (200 and 400 μM), the 6-furfurylamino-9-(2-tetrahydropyranyl)purine-treated cells appeared to be smaller and have less intracellular debris as compared untreated cells.

[2] = tested on: Human forskin fibroblasts (cell line BJ); experiment: in vitro cytotoxic activity, MTT assay; settings: 72 hours; BJ fibroblasts at middle passage
Method: In vitro cytotoxic activity of several of the 6,9-disubstituted purine derivatives of this invention against human diploid fibroblasts was determined by standard MTT assay optimized for 96-well plates. The assay is based on spectrofotometric measurement of the product of metabolic conversion of MTT by mitochondria of living cells.
Human forskin fibroblasts (cell line BJ) at middle passage were maintained in 75 cm^2 plastic tissue culture flasks and cultured in cell culture medium (DMEM with 5 g/l glucose, 2 mM glutamine, 100 U/ml penicillin, 100 μg/ml streptomycin, 10% fetal calf serum, and sodium bicarbonate).
About 5,000 cells were seeded per well of the 96-well plate. After 24 hours the cell culture medium was replaced with the cell culture medium containing a test compound. The test compounds were evaluated at six 2-fold dilutions. The highest concentration used in the present study was usually 200 μM. In the case of compounds with limited solubility in the culture medium the highest concentration was adjusted. Every test compound was examined in five replicates. Cells with the test compounds were incubated for 72 hours at 37° C. in 5% CO2 atmosphere and 100% humidity. At the end of the incubation period, the culture medium was replaced with the cell culture medium containing MTT (0.5 mg/ml) and cells were incubated for another 3 hours. The formazan formed was solubilized by DMSO and absorbance at 570 nm was measured. Ability of the tested compounds to inhibit MTT reducing activity of the cells was calculated as IC=(Acompound exposed well−mean Ablank)/(mean Acontrol well−meanAblank)×100%. IC10, the drug concentration causing 10% decrease in MTT reducing activity, was calculated from the obtained dose response curves.

human skin fibroblasts = experiment: short-term studies on cultured human skin fibroblasts (attachment, survival, growth, apoptosis)
Method: Several short-term, preliminary studies of the effect of 6-furfurylamino-9-(2-tetrahydropyranyl)purine on cultured human skin fibroblasts cells have been carried out. The initial study involved the addition of 6-furfurylamino-9-(2-tetrahydropyranyl)purine (40 to 400 μM) to human skin fibroblasts cells in a culture. The percentage of attachment of the cells to the surface of the culture flask was not affected after 6 hours of treatment. In the remaining experiments reported in this example, the 6-furfurylamino-9-(2-tetrahydropyranyl)purine was added directly to the culture medium at the same time as the cells were seeded.
A wider range of concentrations (from 0.01 to 500 μM) was tested for determining the effects of 6-furfurylamino-9-(2-tetrahydropyranyl)purine on the survival of cultured human skin fibroblasts after 3 days of treatment.
The effect of 6-furfurylamino-9-(2-tetrahydropyranyl)purine (0 to 400 μM) treatment on short term growth of young human fibroblasts was also evaluated. Cell growth was similar in untreated samples and in samples treated with 40, 80, and 200 μM 6-furfurylamino-9-(2-tetrahydropyranyl)purine. […] Similar experiments were carried out to determine the extent of apoptosis and beta-galactosidase staining in 6-furfurylamino-9-(2-tetrahydropyranyl)purine-treated and untreated cells.
Based on these studies, 6-furfurylamino-9-(2-tetrahydropyranyl)purine appears to be well tolerated by young and senescent human skin fibroblasts and to have positive effects in terms of reversion of actin pattern and morphology of senescent cells to relatively younger characteristics.

[3] = tested on: Salmonella typhimurium histidien auxotrophs TA98 and TA100; experiment: Ames Test; settings: 2.5 to 5000 μg/plate; presence and absence of rat liver S9
Method: Tests were carried out using DMSO as solvent and dose levels of 6-furfurylamino-9-(2-tetrahydropyranyl)purine at 2.5, 5.0, 15, 50, 500, 1500, and 5000 μg/plate based upon standard protocol and procedures (Ames et al., Mutation Research, 31, 347-364 (1975); Maron et al., Mutation Research, 113, 173-215 (1983)).

[4] = tested on: Rat C6 glioma (ATCC No. CCL107); experiment: anti-inflammatory activity: isoproterenol-induced intracellular cAMP synthesis; settings: cAMP after 30 min with (−)-isoproterenol
Method: Anti-inflammatory activity of several of the 6,9-disubstituted purine derivatives of this invention was determined; kinetin was also evaluated as a control. Rat C6 glioma (ATCC No. CCL107) was cultivated in monolayer in serum-free chemically defined medium containing Ham's F10/minimal essential medium (1:1 v/v), 2 mM L-glutamine, 1% (v/v) minimal essential medium vitamins (100×), 1% (v/v) minimal essential medium nonessential amino acids (100×), 100 U/ml penicillin, […], and 30 nM sodium selenite. Incubation was performed at 37° C. in a humidified atmosphere. The assays were performed in the logaritmic growth phase at a density of 2.5×10^5 cells/cm^2. Intracellular cAMP synthesis was induced by addition of 5 mM (−)-isoproterenol; various amounts of test compounds were added at the same time as the (−)-isoproterenol. After 30 min incubation at 37° C., the medium was removed and the cellular amount of cAMP was determined using the cAMP-enzyme immunoassay kit from Amersham. The I50 value was determined from a dose-response curve in duplicate.

## c1coc(CNc2ncnc3c2ncn3C2CCCCO2)c1 (stereo not shown) [6-furfurylamino-9-(2-tetrahydropyranyl)purine]
[1]; 0 to 400 μM, after 7 days
  cell number of senescent cells: No negative effects
[1]; 0 to 400 μM, after 30 days of treatment
  appearance of the cells (reversion of age-related changes): younger looking in terms of becoming thinner and arranged in arrays
[1]; 200 μM or more, after 14 days
  survival of senescent cells: slight negative effect on the survival of senescent cells
[1]; late passage senescent cells, 0 to 200 μM, after three days
  actin staining pattern: changed the actin staining pattern from a highly polymerized pattern to a less polymerized filament pattern
[1]; lower concentrations (below 200 μM), after 14 days
  cell number of senescent cells: no negative effects
[2]
  IC10 (concentration causing 10% decrease in MTT reducing activity): >200 µM
Human skin fibroblasts; 0.01 to 500 μM, 3 days of treatment
  toxicity or other negative effects on survival of cultured human skin fibroblasts: No toxicity or other negative effects were apparent
Human skin fibroblasts; 40, 80, and 200 μM
  short term growth of young human fibroblasts vs untreated: similar
Human skin fibroblasts; 40 to 400 μM, after 6 hours of treatment
  percentage of attachment of the cells to the surface of the culture flask: not affected
Human skin fibroblasts; about 400 μM
  short term growth of young human fibroblasts: slight decrease in growth of cells
Human skin fibroblasts; between 1 and 200 μM, 3 days of treatment
  cell growth and survival: slight stimulation of cell growth and survival
Human skin fibroblasts; various doses (0 to 400 μM)
  apoptosis and beta-galactosidase staining (premature senescence): no suggestion of induction of apoptosis or premature senescence
Human skin fibroblasts; young and senescent human skin fibroblasts
  induction of additional growth or cell division: No significant induction of additional growth or cell division
[3]
  mutagenic responses: no positive mutagenic responses
[4]; Rattus norvegicus, C6 glioma, 0.5 h, read-out: Anti-inflammatory Activity I50
  IC50: 13 µM
[4]
  Anti-inflammatory Activity Effect: Inhibition
